Assay results from patent publication US20150250824A1, “METHODS AND COMPOSITIONS FOR EXPANSION OF STEM CELLS AND OTHER CELLS” (The Research Foundation For The State University Of New York, priority 2014, published 2015).
“Also recorded” adds a separate entry of the source. Read-outs that look alike come from different tables or passages of the source.

Experiments:
[1] = tested on: CD34+ cells isolated from peripheral blood of G-CSF-mobilized donors; assay: Ex vivo culture of mobilized peripheral blood CD34+ cells with compounds, CD34/CD38 flow cytometry; type: cell-based, human; details: minimal cytokines
Description: CD34+ cells were isolated from cord blood or from peripheral blood of G-CSF-mobilized adult donors and cultured as follows. Mononuclear cells (MNCs) were isolated using a simple red blood cell lysis (15 minutes at room temperature using BD PharmLyse) or using Ficoll-Paque density gradient centrifugation (Jaatinen and Laine, Current Protocols Stem Cell Biol. 1:2A.1.1-2A.1.4. (2007)). The cells were then incubated with MACS CD34+ Microbead kit (Miltenyi Biotec, Auburn, Calif.) and run through a magnetic column resulting in selection for CD34+ cells. […] Human cortex neural stem cell (hcx NSC) cells were purchased from Millipore.
CD34+ cells were cultured in […] medium ([…] Technologies, Vancouver, BC, Canada) supplemented with 10% FBS, 100 ng/ml hSCF (human stem cell factor), 100 ng/ml hTPO (human thrombopoietin), 100 ng/ml hFLT-3 ligand (Human Fms-related Tyrosine Kinase 3) (Peprotech, Rocky Hill, N.J., USA) and 100 U/ml penicillin/streptomycin (Gibco). Human cortex Neural Progenitor Cell line (hcx NSC) was maintained in ReNcell medium: ReNcell NSC Maintenance medium (Millipore) supplemented with 20 ng/ml human EGF, 20 ng/ml human bFGF (Peprotech) and 100 U/ml penicillin/streptomycin. For expansion of cells targeted for cell sorting, we used the same media containing a different cytokine cocktail of 100 ng/ml SCF, TPO and 10 ng/ml IL-3.
(§1) Cells were centrifuged for 5 minutes at 200 G at 4° C. Cells were resuspended with CD34, 38 and/or 41 conjugated antibodies for 30 minutes on ice. Cells were then washed with 2 ml of PBS and centrifuged for 5 minutes at 200 G at 4° C. The final pellet was resuspended using 300 μl of 2% formalin.
CD34+ cells isolated from peripheral blood of G-CSF-mobilized donors were cultured for 11 days with minimal cytokines and the 4 chemical cocktail (C6FZ). […] The population bearing CD34+/CD38− is associated with long-term repopulating HSCs.
CD34+ cells isolated from the peripheral blood of G-CSF-mobilized donors were next cultured for 11 days with minimal cytokines and the individual compounds, C, 6, F and Z (FIG. 13).

[2] = tested on: CD34+ cells isolated from human umbilical CB; type: cell-based
Description: Megakaryocytes derived from CB in vitro are usually smaller than megakaryocytes derived from bone marrow or mobilized peripheral blood from adults. Small megakaryocyte size may contribute to delayed platelet engraftment when cord blood is used for bone marrow transplantation. To test whether 616452 is able to increase fetal/neonatal megakaryocyte size and ploidy, CD34+ cells isolated from human umbilical CB were cultured in StemSpan SFEM containing SCF, TPO and Flt-3 Ligand. CB CD34+ cells in the presence of TPO after 4 or 8 day culture, were morphologically consistent of a relative homogenous population of small cells (FIG. 19A) and megakaryocytic features such as large nuclear size and cytoplasmic mass were hardly detectable.
One of the unique characteristics of megakaryocytes is the ploidy development of their nuclei, which can be easily measured using propidium iodide (PI), a fluorescent intercalating agent that binds to nucleic acids. Megakaryocyte (Mk) ploidy correlates well with their maturation and platelet production. […] Out of 10,000 events, the control cells only elicited only 1 cell with a ploidy of 16N and nothing thereon greater (FIG. 20A).

[3] = tested on: CD41+ cells sorted from cultured CB CD34+ cells
Description: FIG. 22. […] CB CD34+ cells were cultured with TPO, SCF, IL-3 for 7 days prior for CD41 selection by flow cytometry.
Cells were isolated for nestin (NSCs) and FLK-1 (hemangioblasts) before further differentiation. For cell sorting, cells were centrifuged for 5 minutes at 200 G at 4° C. and resuspended with 25 μl of CD41-FITC antibody for 30 minutes on ice. Cells are then washed gently with PBS and centrifuged for 5 minutes at 200 G at 4° C. Cells are then suspended at a concentration of 10^6 cells/ml of PBS containing 2% FBS. Cells are sorted via FACS Aria.
To test this issue and the extent of megakaryocytic population in response to the chemical induction, we cultured HUBC CD34^+ cells for 12-14 days in a media specific to megakaryocyte expansion (Nikougoftar Zarif, M., et al., Cell journal 13:173-178 (2011)). The cells were labeled with a conjugated CD41 antibody and sorted by flow cytometry sorting.

C57BL/6J mice given 5-FU = tested on: C57BL/6J mice given 5-FU
Description: FIG. 25. […] Fifteen 8-week old mice were given IP injections of 5-FU (250 mg/kg) on day 0. Complete blood counts (CBCs) were done on day 2, 4, 6, 9, and 12. 616452 (10 mg/kg) was introduced via IP injections on day 5, 7 and 9. The above data is a representative sample of the overall experiment. Data values from day 4 are not included.
The inventors used C57BL/6J mice to administrate with SFU, a chemotherapy agent (150 mg/kg, intraperitoneal injection). Peripheral blood (100 ul each) from injected mice is collected for assessment of the peripheral blood count using a hematology analyzer.
616452 was introduced to eight of the mice at this point and was injected every other day for a total of three doses.

CD41− cells = details: same conditions as CD41+ cells
Description: CD41− cells were also cultured under the same conditions with the control being induced using TPO and DMSO.

bone marrow CD34+ cells = tested on: bone marrow CD34+ cells
Description: 616452 (also called RepSox), was purchased separately from Biovision and Millipore. […] A fresh aliquot of the chemical was used at every media change and the final concentration in media is 10 μM.
as §1
Flow cytometry study was used to analyze the immunophenotype of cultured cells. As mature, large megakaryocytes may not be detectable by flow cytometry, bone marrow CD34+ cells were cultured for 4 days in order to detect younger, small megakaryocytes. […] However, flow analysis of megakaryocytes is known to be misleading due to the sheer size of the megakaryocytes, which can have a diameter ranging from 20 um to 120 um.

CB CD34+ cells = tested on: CB CD34+ cells
Description: FIG. 24. […] On the right is a heat map illustrating the values of expression in terms of fold increase over controls. Green is indicative of up-regulation while red is down-regulation.
Cells were analyzed via Qiagen's PAHS-054Z hematopoiesis array containing 81 genes.

[4] = greater dose vs 10 μM standard (FIG. 20B)
[5] = Giemsa-Wright staining (FIG. 19B)

Q: With `Cc1cccc(-c2n[nH]cc2-c2ccc3ncccc3n2)n1` [compound 616452, 2-[3-(6-methyl-2-pyridinyl)-1H-pyrazol-4-yl]-1,5-naphthyridine] as the compound, how does the “expansion of CD34+ cells” value ([1]; 5 days, 10 μM) read?
A: The value was “rapidly expanded the CD34+ cells”.

Q: What about the “effect on CD34+CD38+ and CD34+CD38− populations” value ([1]; 11 days, C, 6, F at 10 μM, Z at 100 nM, listed as 6) of the same compound?
A: The value was “best effect enhancing both CD34+CD38- and CD34+ and CD38+ positive cells; also recorded: ability to enhance both the population of single positive (CD34+CD38−) and double positive (CD34+CD38+) cells; also recorded: the most effects on the CD34+CD38− population”.

Q: What about the “cluster formation at high concentrations” value [2] of the same compound?
A: Its value is “no clusters in 4× concentrations or higher”.

Q: And the “culture composition by 8 days” value [2]?
A: Its value is “predominately composed of megakaryocytes”.

Q: And the “change in number of 8N, 16N and 32N cells between 8 and 12 days of induction” value ([2]; 10 μM)?
A: The value was “nearly doubled”.

Q: What about the “days of culture until appearance of large megakaryocyte-like cells” value ([2]; 10 μM) of the same compound?
A: Its value is 4 days.

Q: What about the “growth of the cells relative to control” value ([2]; 10 μM (1×)) of the same compound?
A: The value was 25-50%.

Q: And the “megakaryocytic features (large nuclear size, cytoplasmic mass)” value ([2]; 4 or 8 day culture with TPO)?
A: Its value is “megakaryocytes with these features were easily observed”.

Q: And the “increase of CD41 expression compared to control” value ([2]; 4 days induction, flow cytometry)?
A: Its value is 27%.

Q: And the “number of cells with greater ploidy” value ([2]; 8 days induction)?
A: The value was “drastically increased number of cells with greater ploidy”.

Q: And the “cells of 16N ploidy out of 10,000 events” value ([2]; 8 days induction, PI staining)?
A: The value was “over 100 cells”.

Q: And the “CD34+CD41+ population” value ([2]; flow analysis (FIG. 19C))?
A: The value was “an increase in the CD34^+ CD41^+ population”.

Q: And the “increase of the CD41+ population” value ([2]; flow analysis, 5 days induction (FIG. 19C))?
A: Its value is 25-40%.

Q: And the “fold increase over the standard in 8N cells” value [2, 4]?
A: Its value is 1.68 fold.

Q: And the “fold increase over the standard in 16N cells” value [2, 4]?
A: The value was 2.5 fold.

Q: What about the “fold increase over the standard in 32N cells” value [2, 4] of the same compound?
A: Its value is 6 fold.

Q: And the cell death ([2]; human, 48 h, 100 μM)?
A: Its cell death is “all the cells died within 48 hours”.

Q: What about the “fold increase of 4N cells over control” value ([2]; time dependence study) of the same compound?
A: Its value is 5 fold.

Q: And the “fold increase of 8N cells over control” value ([2]; time dependence study)?
A: The value was 30 fold.

Q: And the “fold increase of 16N cells over control” value ([2]; time dependence study)?
A: The value was 80 fold.

Q: And the “time until cells began to increase their size” value [3]?
A: The value was ≤ 2 days.

Q: And the “cells of 8N out of 10,000 events” value ([3]; 8 days of induction)?
A: The value was 2018 cells.

Q: And the “cells of 16N out of 10,000 events” value ([3]; 8 days of induction)?
A: The value was 585 cells.

Q: What about the “cells of 32N or greater out of 10,000 events” value ([3]; 8 days of induction) of the same compound?
A: Its value is 86 cells.

Q: What about the “fold increase in 8N” value ([3]; 8 days, vs DMSO control) of the same compound?
A: Its value is 30 fold.

Q: And the “fold increase in the number of 4N” value ([3]; 8 days, vs DMSO control)?
A: The value was 4.5 fold.

Q: What about the “cells positive in CD41 live cell stain” value ([3]; after 8 days of induction) of the same compound?
A: Its value is 95%.

Q: And the cluster size ([3]; around day 4)?
A: The cluster size was 5-15 cells.

Q: What about the cluster size ([3]; by day 6) of the same compound?
A: Its cluster size is 25-50 cells.

Q: And the “cells appearing large in size by eye” value ([3]; day 6)?
A: Its value is “approximately 80%”.

Q: What about the highest ploidy reached ([3]; within 8 days of culture) of the same compound?
A: Its highest ploidy reached is ≤ 64N.

Q: What about the “platelet counts by day 12” value (C57BL/6J mice given 5-FU; 10 mg/kg every other day, three doses, after 5-FU) of the same compound?
A: The value was “almost twice as many platelets as normal mice”.

Q: And the “white blood cell count” value (C57BL/6J mice given 5-FU; chemotherapy treated mice)?
A: The value was “significant improvement or recovery of the white blood cell count”.

Q: And the “platelet counts in mice not given 5-FU” value (C57BL/6J mice given 5-FU; mouse, in vivo)?
A: The value was “little to no change”.

Q: What about the ploidy development (CD41− cells) of the same compound?
A: Its ploidy development is “slight increase in ploidy”.

Q: And the “fold increase of CD34+CD41+ cells” value (bone marrow CD34+ cells; 4 days culture, flow cytometry)?
A: The value was 2 fold.

Q: And the average cell size (bone marrow CD34+ cells; [5])?
A: Its average cell size is “around 50 um”.

Q: And the “cell size, largest” value (bone marrow CD34+ cells; [5])?
A: Its value is ≤ 90 μm.

Q: And the “percentage of CD41 increased” value (bone marrow CD34+ cells; after 5 days of culture, 10 μM, N>3 experiments)?
A: Its value is 50-100%.

Q: What about the “increase in the CD41+ population” value (bone marrow CD34+ cells; within 4 days of culture, flow cytometry) of the same compound?
A: The value was ~100%.

Q: And the “PF4 expression on day 4 compared to that on day 2” value (CB CD34+ cells)?
A: Its value is “more than 11 fold”.

Q: And the genes down-regulated (CB CD34+ cells; day 2 of induction)?
A: The genes down-regulated was “one”.

Q: What about the genes down-regulated (CB CD34+ cells; day 4 of induction) of the same compound?
A: Its genes down-regulated is “four”.
